In patent US9403800B2, “Compounds for inhibition of cancer cell proliferation” (ChemRegen, Inc., priority 2012, dated 2016):

How the values were obtained:
[1] = test system: Endogenous Target Genes for Wnt & Apoptotic Pathways in HCT-116; test: qPCR of Wnt and pro-apoptotic target genes, HCT-116; type: cell-based; design: MYC expression, % change relative to DMSO control / CCDN1 expression, % change relative to DMSO control / BAX expression, % change relative to DMSO control / BBC3 expression, % change relative to DMSO control / FOS expression, % change relative to DMSO control: concentration or dose not given beside the values; conditions: HCT-116, 24 hrs, qPCR normalized to 36B4
Description: (§1) Given the effects of Compounds 1, 4, and 15 on biological functions (e.g., proliferation, viability, and apoptosis) in several cancer cell lines, we tested the effects of compounds 1, 4, and 15 on regulation of endogenous Wnt and pro-apoptotic gene expression. MDA-MB-231, MCF-7, PC-3, and HCT-116 cancerncells were treated with the indicated compounds for 24 hrs. over a dose range from 1.6 to 5000 nM. Gene expression was measured using qPCR, normalized to the housekeeping gene, 36B4, and calculated % change relative to DMSO control. NC, no change.

[2] = test system: MDA-MB-231; test: viability (Alamar Blue), MDA-MB-231; type: cell-based; conditions: Homo sapiens; MDA-MB-231, 24 hrs
Description: (§2) Given Compounds 1, 4, and 15 inhibited cancer cell proliferation and stimulated apoptosis, we tested the effects compounds 1, 4, and 15 on cancer cell viability and cytotoxicity. The MDA-MB-231, MCF-7, PC-3, and HCT-116 cells were treated with the indicated compounds for 24 hrs. over a dose range from 1.6 to 5000 nM. Viability and cytotoxicity were then measured by the Alamar Blue and Vibrant Cytotox assays respectively.

[3] = test system: Endogenous Target Genes for Wnt & Apoptotic Pathways in MCF-7; test: qPCR of Wnt and pro-apoptotic target genes, MCF-7; type: cell-based; design: MYC expression, % change relative to DMSO control / BAX expression, % change relative to DMSO control / BAK expression, % change relative to DMSO control / BBC3 expression, % change relative to DMSO control / FOS expression, % change relative to DMSO control: concentration or dose not given beside the values; conditions: MCF-7, 24 hrs, qPCR normalized to 36B4
Description: as §1

[4] = test system: MCF-7; test: inhibition of proliferation (PicoGreen DNA assay), MCF-7; type: cell-based; conditions: Homo sapiens, MCF7
Description: (§3) We tested a subset of the 50 sulfonamide analogues for inhibition of proliferation of the MDA-MB-231, PC-3, MCF-7, and HCT-116 cancer cell lines. Following plating of the cells (24 hrs) in eight identical 96-well plates, the cells were treated with either Compound 1, 4, 15, or vehicle (DMSO) using a dose range of 1.6 to 5000 nM. After the lysis of cells, the cell lysate was resuspended in 25 μl PBS and the DNA was quantified using a PicoGreen assay by measuring fluorescence at Ex490 nm/Em535 nm. Cell proliferation was inhibited by Compounds 1, 4, and 15 for all the cancer cell lines tested with inhibition constants listed in Table 2.

[5] = test system: MDA-MB-231; test: inhibition of proliferation (PicoGreen DNA assay), MDA-MB-231; type: cell-based; conditions: Homo sapiens
Description: as §3

[6] = test system: Endogenous Target Genes for Wnt & Apoptotic Pathways in MDA-MB 231; test: qPCR of Wnt and pro-apoptotic target genes, MDA-MB 231; type: cell-based; design: concentration or dose not given beside the values; conditions: MDA-MB 231, 24 hrs, qPCR normalized to 36B4
Description: as §1

[7] = test system: HCT-116; test: stimulation of apoptosis, Caspase 3/7 cleavage (Caspase-Glo Kit), HCT-116; type: cell-based; conditions: Homo sapiens, HCT-116, 24 hrs
Description: Given Compounds 1, 4, and 15 inhibited cancer cell proliferation, we tested whether compounds 1, 4, and 15 stimulated cancer cell apoptosis. The MDA-MB-231, MCF-7, PC-3, and HCT-116 cells were treated with the indicated compounds for 24 hrs. over a dose range from 1.6 to 5000 nM. Apoptosis was then measured by monitoring Caspase 3/7 cleavage (Caspase-Glo Kit).

[8] = test system: HCT-116; test: inhibition of proliferation (PicoGreen DNA assay), HCT-116; type: cell-based; conditions: Homo sapiens
Description: as §3

[9] = test system: Wnt transcriptional activity; test: cell-based Wnt-luciferase reporter assay (SuperTOPFlash); conditions: for Relative potency for Wnt inhibition: relative to IWR-1, transfected HEK293A cells treated 12 hours, normalized to Renilla
From the text: “Hit” 1 (FIG. 1) was identified as a Wnt inhibitor in a high-throughput screen of a library of 74,000 compounds using a cell-based Wnt-luciferase reporter assay as a readout of Wnt transcriptional activity. […] Wnt transcriptional activity was monitored in HEK-293T cells using a luciferase-based Wnt reporter (SuperTOPFlash) stimulated by Wnt3a conditioned media.
Medicinal chemical refinement of “hit” 1 was undertaken to improve its potency, maintain non-toxicity, increase water solubility and improve bioavailability. The SAR refinement of functional activity of “hit” 1 on the inhibition of the Wnt pathway was determined using a cell-based Wnt-luciferase reporter assay (described above). with Renilla Luciferase was used as a normalization for transfection efficiency. 6-8 hours after transfection, transfected HEK293A cells were treated with 1 and each analog for 12 hours. Both firefly and renilla luciferase activities were measured using a plate reader. A library of compounds was tested to obtain an SAR for 1. Compound 1 and its analogs are synthesized by a two step synthesis, Scheme 1.
Signaling was tested using a standard luciferase response system for canonical Wnt/β-catenin/TCF signaling. Briefly, we used a cell line that had been transfected with a luciferase reporter gene under the control of the response element of a transcription factor that is activated by association with β-catenin and is the target of canonical Wnt signaling.

[10] = cytotoxicity (Vibrant Cytotox assay), MDA-MB-231; type: cell-based; conditions: human, MDA-MB-231 cells; MDA-MB-231, 24 hrs
Description: as §2

[11] = cytotoxicity (Vibrant Cytotox assay), LNCap; type: cell-based; conditions: human, LNCap cells
[12] = test system: HCT-116 and MCF-7 cancer cells; p53 −/− isogenic HCT-116 cells; test: morphology change of cancer cells with and without p53; type: cell-based; conditions: for morphology change in cancer cells with wild-type and mutant p53: HCT-116 and MCF-7, 500 nM for 24 hours; for morphology change in cells lacking p53: −/− p53 isogenic HCT-116 cells, 500 nM for 24 hours
From the text: Using the same treatment conditions, this morphology change was not observed in […] cells lacking p53 (i.e., −/− p53, isogenic HCT-116 cells) highlighting the integral importance of p53 protein in the mechanism of action of the disclosed compounds.

Compound	BAK expression, % change relative to DMSO control [1]	BBC3 expression, % change relative to DMSO control [1]	CCDN1 expression, % change relative to DMSO control [1]	FOS expression, % change relative to DMSO control [1]	JUN expression, % change relative to DMSO control [1]	MYC expression, % change relative to DMSO control [1]	IC50 [2]	BAK expression, % change relative to DMSO control [3]	BBC3 expression, % change relative to DMSO control [3]	CCDN1 expression, % change relative to DMSO control [3]	FOS expression, % change relative to DMSO control [3]	JUN expression, % change relative to DMSO control [3]	MYC expression, % change relative to DMSO control [3]	IC50 [4]	IC50 [5]	BAK expression, % change relative to DMSO control [6]	BAX expression, % change relative to DMSO control [6]	BBC3 expression, % change relative to DMSO control [6]	CCDN1 expression, % change relative to DMSO control [6]	JUN expression, % change relative to DMSO control [6]	also measured
O=C1CCCN1c1ccc(S(=O)(=O)N2CCCc3ccccc32)cc1 [Compound 1, 1-(4-(3,4-dihydroquinolin-1(2H)-ylsulfonyl)phenyl)pyrrolidin-2-one]	+75%	−80%	+40%	−70%	+525%	−45%	35 nM	−10%	−55%	+50%	−70%	+125%	−25%	20 nM	100 nM	−42%	−70%	−78%	−72%	−50%	BAX expression, % change relative to DMSO control [1]: +5%; MYC expression, % change relative to DMSO control [6]: −70%; IC50 [7]: 96 nM; IC50 [8]: 40 nM; EC50 ([9]; Homo sapiens, HEK-293T cells, SuperTOPFlash stimulated by Wnt3a conditioned media, read-out: inhibition of Wnt transcriptional activity, EC50): ~25 nM; Relative potency for Wnt inhibition [9]: +++ (between 40 to 60% potency compared to IWR-1); IC50 at 24 h [10]: > 5000 nM; IC50 at 24 h [11]: > 5000 nM; morphology change in cancer cells with wild-type and mutant p53 [12]: morphology change from a flat adherent cell to a rounded non-adherent one; morphology change in cells lacking p53 [12]: not observed
CC1CCc2ccccc2N1S(=O)(=O)c1ccc(N2CCCC2=O)cc1 (stereo not shown) [Compound 4, 1-(4-(2-methyl-3,4-dihydroquinolin-1(2H)-ylsulfonyl)phenyl)pyrrolidin-2-one]	+110%	−90%	−5%	−85%	+725%	−75%	45 nM	+25%	−40%	+100%	−85%	+50%	−5%	40 nM	250 nM	−50%	−65%	−80%	−25%	−45%	BAX expression, % change relative to DMSO control [3]: +75%; FOS expression, % change relative to DMSO control [6]: +100%; MYC expression, % change relative to DMSO control [6]: −55%; IC50 [7]: 143 nM; IC50 [8]: 100 nM; Relative potency for Wnt inhibition [9]: ++++ (between 60 to 80% potency compared to IWR-1); IC50 at 24 h [10]: > 5000 nM; IC50 at 24 h [11]: > 5000 nM; morphology change in cancer cells with wild-type and mutant p53 [12]: morphology change from a flat adherent cell to a rounded non-adherent one; morphology change in cells lacking p53 [12]: not observed
CN1CCN(S(=O)(=O)c2ccc(N3CCCC3=O)cc2)c2ccccc21 [Compound 15, 1-(4-(4-methyl-3,4-dihydroquinoxalin-1(2H)-ylsulfonyl)phenyl)pyrrolidin-2-one]	+98%	−95%	+25%	−84%	+775%	−70%	93 nM	+45%	+75%	+50%	−75%	+150%	−50%	20 nM	25 nM	−20%	−62%	−65%	−22%	−38%	BAX expression, % change relative to DMSO control [1]: −5%; BAX expression, % change relative to DMSO control [3]: −25%; FOS expression, % change relative to DMSO control [6]: −10%; MYC expression, % change relative to DMSO control [6]: −50%; IC50 [7]: 15 nM; IC50 [8]: 15 nM; inhibition of Wnt transcriptional activity, IC50 (class symbol) ([9]; tested simultaneously with p53 reporter): ++++ (between 60 to 80% potency compared to IWR-1); IC50 at 24 h [10]: > 5000 nM; IC50 at 24 h [11]: > 5000 nM; morphology change in cancer cells with wild-type and mutant p53 [12]: morphology change from a flat adherent cell to a rounded non-adherent one; morphology change in cells lacking p53 [12]: not observed
